The source of these data is PMC9967645, “OAT3 Participates in Drug–Drug Interaction between Bentysrepinine and Entecavir through Interactions with M8—A Metabolite of Bentysrepinine—In Rats and Humans In Vitro” (Molecules, 2023).

For data set [1] the following is noted: human, in vivo; cited from earlier work.
The target of the next data set is T1, hOAT3 (Homo sapiens, UniProt Q8TCC7).
T1 sequence (Q8TCC7 1-542): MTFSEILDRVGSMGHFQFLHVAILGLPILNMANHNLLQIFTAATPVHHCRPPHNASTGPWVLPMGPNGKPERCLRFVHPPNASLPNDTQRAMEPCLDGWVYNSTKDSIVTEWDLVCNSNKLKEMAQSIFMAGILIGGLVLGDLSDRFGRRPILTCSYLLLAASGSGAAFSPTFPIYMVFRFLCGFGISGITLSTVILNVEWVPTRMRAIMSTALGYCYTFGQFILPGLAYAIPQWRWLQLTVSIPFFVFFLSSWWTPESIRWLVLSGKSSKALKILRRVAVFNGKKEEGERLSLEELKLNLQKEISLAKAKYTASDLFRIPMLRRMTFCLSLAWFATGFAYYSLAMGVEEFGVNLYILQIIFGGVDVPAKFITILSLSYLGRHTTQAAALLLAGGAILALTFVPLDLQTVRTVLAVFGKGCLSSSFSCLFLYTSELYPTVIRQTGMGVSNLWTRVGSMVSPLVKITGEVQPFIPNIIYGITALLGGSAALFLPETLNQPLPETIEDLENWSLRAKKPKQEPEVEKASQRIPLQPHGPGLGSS
On the set-up: expressed in transfected cells; host or cells: HEK293; method as in PMID 23313623. The following applies: read-out: Km (affinity with hOAT3); cited from earlier work.

The next data set has as its target T2, hOAT1 (Homo sapiens, UniProt Q4U2R8).
T2 construct: expressed in transfected cells; host or cells: HEK293
T2 sequence (Q4U2R8 1-563): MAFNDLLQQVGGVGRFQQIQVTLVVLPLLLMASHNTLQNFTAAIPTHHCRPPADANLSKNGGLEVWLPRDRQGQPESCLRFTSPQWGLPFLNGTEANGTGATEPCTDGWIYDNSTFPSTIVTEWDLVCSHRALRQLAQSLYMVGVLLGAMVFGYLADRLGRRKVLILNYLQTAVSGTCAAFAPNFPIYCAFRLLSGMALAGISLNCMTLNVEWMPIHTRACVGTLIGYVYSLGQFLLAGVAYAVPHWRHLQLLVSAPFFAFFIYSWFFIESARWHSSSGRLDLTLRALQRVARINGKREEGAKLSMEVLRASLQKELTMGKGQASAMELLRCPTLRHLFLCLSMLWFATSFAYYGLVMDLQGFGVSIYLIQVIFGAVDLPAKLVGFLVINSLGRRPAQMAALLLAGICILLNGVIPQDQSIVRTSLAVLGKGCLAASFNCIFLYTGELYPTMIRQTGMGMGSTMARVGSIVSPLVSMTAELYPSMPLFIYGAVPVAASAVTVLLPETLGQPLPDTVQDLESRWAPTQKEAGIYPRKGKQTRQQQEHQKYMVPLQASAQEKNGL
In words: In vitro uptake assay in hOAT1-HEK293 cells. Format: in vitro ADME. To be noted: Y101 2.0 µM, M8 10 µM; for inhibition of the uptake of ETV in hOAT1-HEK293 cells: ETV 10 µM; for substrate of hOAT1 (uptake in hOAT1-HEK293 vs mock-HEK293 cells): PAH 10 µM. Here is the method:
The hOAT1-HEK293, hOAT3-HEK293 and mock cells were cultured in Dulbecco modified Eagle medium (DMEM) containing 10% fetal bovine serum (FBS) and 1% penicillin/streptomycin in an atmosphere of 5% CO2 air at 37 °C. The HEK293 cells were plated on 24-well plates at a density of 5 × 10^5 cells/well. […] Uptake assay was initiated by adding 1 mL of the transporter buffer containing Y101, M8, ETV or probe substrate. Following incubation with gentle shaking, the uptake was terminated at designated time by removing the transporter buffer and washing cells three times with 1 mL of ice-cold HBSS. Next, substrates of Y101, M8, ETV, PAH and ES in cell monolayer were released by lysing the cells with 0.3 mL of 0.1% Triton X-100 for 2 h and determined by liquid chromatography–tandem mass spectrometry (LC–MS/MS). In the time-course uptake assay, Y101 (2.0 µM) and M8 (10 µM) in the presence or absence of PRO (100 µM) were measured in hOAT1-HEK293, hOAT3-HEK293 and mock cells. The concentration-dependent uptake of M8 was determined in hOAT3-HEK293 cells, and incubation time (5 min) was optimized. The uptake of M8 (10 µM) with or without ETV was examined in hOAT3-HEK293 cells. The uptake of ETV (10 µM) with or without Y101 or M8 was also measured in hOAT1-HEK293 and hOAT3-HEK293 cells, respectively. Furthermore, PAH and ES at concentrations of 10 µM were used as positive control in hOAT1-HEK293 and hOAT3-HEK293 cells, respectively. Protein concentrations were measured by the bicinchoninic acid procedure (Solarbio, Beijing, China) using bovine serum albumin as the standard.
Biological samples were prepared as previously described. Aliquots (50 µL) of urine, plasma, kidney homogenates, or cell lysates were individually mixed with 150 µL methanol and 50 µL working solution of internal standard (acetaminophen or bestatin), followed by vortexing for 1 min and centrifuging at 13,800 g for 10 min. […] The resulting supernatant (1 µL) was subjected to LC-MS/MS for the assessment of Y101, M8, M9 and ETV, respectively. […] The concentrations of ETV, Y101, M8 and M9 were determined by an AB QTRAP 5500 LC–MS/MS System (Foster City, CA, USA) as previously described. […] Analyst1.5.2 software was used for data processing and analysis.

Details of data set [2]: method as in PMID 32277364. To be noted: healthy Chinese subjects, oral administration of Y101; cited from earlier work.
The subject of another data set is HBV. On the set-up: method as in PMID 32277364, PMID 21872478, PMID 19307124, doi:10.1016/S1674-6384(15)60018-1. To be noted: dose-dependent; cited from earlier work.
The subject of data set [3] is lamivudine and entecavir-resistant HBV. Also on record: method as in PMID 32277364, PMID 21872478, PMID 19307124, doi:10.1016/S1674-6384(15)60018-1. To be noted: A64 cells; cited from earlier work.
For data set [4] the following is noted: concanavalin A and alpha-naphthylisothiocyanate-induced; cited from earlier work.
On the set-up of data set [5]: method as in PMID 32277364, PMID 29258048. To be noted: healthy Chinese volunteers, phase I; cited from earlier work.

Turning to `C=C1[C@H](CO)[C@@H](O)C[C@@H]1n1cnc2c(=O)[nH]c(N)nc21` [ETV, entecavir], in data set [1], the plasma concentrations entry is “lower than 50 nM”. Also, the Km at hOAT3 was 23 µM.
On to `CN(C)CCOc1ccc(CC(NC(=O)c2ccccc2)C(=O)O)cc1` (stereo not drawn) [M8], for which, on hOAT1, the “inhibition of the uptake of ETV in hOAT1-HEK293 cells” value is reported as “not inhibited” and the “substrate of hOAT1 (uptake in hOAT1-HEK293 vs mock-HEK293 cells)” value is recorded as “not a substrate of hOAT1”. In addition, in data set [2], the renal excretion was 27.2 % of the dose.
Consider `CN(C)CCOc1ccc(C[C@H](NC(=O)c2ccccc2)C(=O)N[C@H](CO)Cc2ccccc2)cc1.Cl` [Y101, N-[N-benzoyl-O-(2-dimethylaminoethyl)-l-tyrosyl]-l-phenylalaninol hydrochloride], for which, on hOAT1, the “inhibition of the uptake of ETV in hOAT1-HEK293 cells” value is “not inhibited” and the “substrate of hOAT1 (uptake in hOAT1-HEK293 vs mock-HEK293 cells)” value is “not a substrate of hOAT1 or hOAT3”. For the same compound, in data set [2], the renal excretion was 2.98 % of the dose. Besides, the “inhibitory effects on HBsAg and HBV-DNA replication” value in the data set on HBV was “potent inhibitory effects”. Also, the “activity against lamivudine and entecavir-resistant HBV replication” value in data set [3] is on record as “significant activity”. Besides, the “protective effects on induced liver injury” value in data set [4] is on record as “protective effects”. Besides, the safety and tolerability entry in data set [5] was “acceptable safety and tolerability”.

As usually defined, the Km is the concentration of substrate that gives half-maximal velocity.
